Assay results as given in patent publication US20210395652A1, “TEXTILE TREATMENT COMPOSITIONS” (priority 2020, published 2021).
Where two headings read alike, the source gives them in different places.

Legend:
NCTC clone 1469 cells [1] = test: Cytotoxicity control of the treated fabric test; format: cell-based, mouse; details: Formaldehyde control
Experimental: Controls were untreated fabric pieces of the same size. After incubation with the virus for 15, 30 or 60 minutes the samples were neutralized with D/E broth, vortexed to remove the virus from the fabric and passed over a Sephadex LH-20 column to remove potential cytotoxic substances. Serial dilutions of the column eluates were used to inoculate NCTC clone 1469 cells in a 96 well plate to determine the TCID50 for the virus at each time. After 14 days the wells were examined for cytopathological effects (CPE) in the cells and scored accordingly.

NCTC clone 1469 cells [2] = details: mouse, pH 7.3

Structure (SMILES): C=O [Formaldehyde]
- dilution to which all cells were killed (NCTC clone 1469 cells [1]): killed all cells to the 10^−2 dilution
- dilution to which all cells were killed (NCTC clone 1469 cells [2]): killed all cells to the 10^4 dilution
